Measurements reported in patent publication US20060229308A1, “Substituted pyrirmidin-4-ylamine analogues as vanilloid receptor ligands” (Neurogen Corporation, priority 2003, published 2006).

Each compound was assayed against T1, human capsaicin receptor (Homo sapiens, UniProt Q8NER1) (assay: Calcium mobilization assay, agonist response). Details: capsaicin positive control, calcium mobilization in cells expressing human capsaicin receptor; read-out: approximate EC90 concentration.
T1 construct: transfected with the pBK-CMV expression construct encoding the full length human capsaicin receptor using standard methods; expressed in transfected cells
T1 sequence (Q8NER1 whole entry): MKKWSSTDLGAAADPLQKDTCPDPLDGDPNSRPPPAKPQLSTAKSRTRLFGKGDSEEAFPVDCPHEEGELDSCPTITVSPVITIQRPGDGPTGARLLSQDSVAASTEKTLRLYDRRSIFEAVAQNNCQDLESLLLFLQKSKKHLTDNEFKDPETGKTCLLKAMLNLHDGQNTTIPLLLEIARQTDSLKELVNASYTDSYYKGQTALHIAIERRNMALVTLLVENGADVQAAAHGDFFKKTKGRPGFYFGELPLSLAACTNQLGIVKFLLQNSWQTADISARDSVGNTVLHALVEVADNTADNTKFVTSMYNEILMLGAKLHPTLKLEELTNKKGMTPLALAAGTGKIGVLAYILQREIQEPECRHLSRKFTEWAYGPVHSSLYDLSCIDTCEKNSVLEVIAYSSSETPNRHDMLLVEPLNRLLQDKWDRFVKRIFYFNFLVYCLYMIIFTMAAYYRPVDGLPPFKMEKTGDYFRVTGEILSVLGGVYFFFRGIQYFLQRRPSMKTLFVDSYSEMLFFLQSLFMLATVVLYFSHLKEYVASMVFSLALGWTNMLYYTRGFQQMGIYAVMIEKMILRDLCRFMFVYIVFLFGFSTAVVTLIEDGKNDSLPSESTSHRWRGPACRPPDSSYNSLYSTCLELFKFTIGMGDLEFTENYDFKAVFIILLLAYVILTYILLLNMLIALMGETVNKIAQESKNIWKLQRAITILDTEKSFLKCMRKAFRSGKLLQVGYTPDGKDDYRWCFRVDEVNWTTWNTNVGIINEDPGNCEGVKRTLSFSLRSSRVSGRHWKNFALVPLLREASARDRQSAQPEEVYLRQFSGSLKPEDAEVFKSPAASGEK
Assay type: cell-based
Experimental: Cells transfected with expression plasmids (as described in Example 4) and thereby expressing human capsaicin receptor are seeded and grown to 70-90% confluency in FALCON black-walled, clear-bottomed 96-well plates (#3904, BECTON-DICKINSON, Franklin Lakes, N.J.). The culture medium is emptied from the 96 well plates and FLUO-3 AM calcium sensitive dye (Molecular Probes, Eugene, Oreg.) is added to each well (dye solution: 1 mg FLUO-3 AM, 440 μL DMSO and 440 μl 20% pluronic acid in DMSO, diluted 1:250 in Krebs-Ringer HEPES (KRH) buffer (25 mM HEPES, 5 mM KCl, 0.96 mM NaH2PO4, 1 mM MgSO4, 2 mM CaCl2, 5 mM glucose, 1 mM probenecid, pH 7.4), 50 μl diluted solution per well). […]
To measure the ability of a test compound to agonize or antagonize a calcium mobilization response in cells expressing capsaicin receptors to capsaicin or other vanilloid agonist, the EC50 of the agonist capsaicin is first determined. […] Capsaicin-induced calcium mobilization is monitored using either FLUOROSKAN ASCENT (Labsystems; Franklin, Mass.) or FLIPR (fluorometric imaging plate reader system; Molecular Devices, Sunnyvale, Calif.) instruments. […] In this equation, y is the maximum fluorescence signal, x is the concentration of the agonist or antagonist (in this case, capsaicin), a is the Emax, b corresponds to the EC50 value and c is the Hill coefficient. […]
In the case of `COc1cc(CNC(=O)CCCC/C=C/C(C)C)ccc1O` [capsaicin], the EC90 is reported as roughly 0.1 µM.

These compounds were tested against T1, human capsaicin receptor (assay: Calcium mobilization assay, determination of antagonist activity). Details: 50% decrease in fluorescence response of cells expressing human capsaicin receptor exposed to capsaicin; Example 6.
Assay type: cell-based
Text: This Example illustrates the preparation of VR1-transfected cells and VR1-containing membrane preparations for use in capsaicin binding assays (Example 5).
A cDNA encoding full length human capsaicin receptor (SEQ ID NO:1, 2 or 3 of U.S. Pat. No. 6,482,611) was subcloned in the plasmid pBK-CMV (Stratagene, La Jolla, Calif.) for recombinant expression in mammalian cells.
Human embryonic kidney (HEK293) cells were transfected with the pBK-CMV expression construct encoding the full length human capsaicin receptor using standard methods. The transfected cells were selected for two weeks in media containing G418 (400 μg/ml) to obtain a pool of stably transfected cells. Independent clones were isolated from this pool by limiting dilution to obtain clonal stable cell lines for use in subsequent experiments.
This Example illustrates representative calcium mobilization assays for use in evaluating test compounds for agonist and antagonist activity.
Cells transfected with expression plasmids (as described in Example 4) and thereby expressing human capsaicin receptor are seeded and grown to 70-90% confluency in FALCON black-walled, clear-bottomed 96-well plates (#3904, BECTON-DICKINSON, Franklin Lakes, N.J.). The culture medium is emptied from the 96 well plates and FLUO-3 AM calcium sensitive dye (Molecular Probes, Eugene, Oreg.) is added to each well (dye solution: 1 mg FLUO-3 AM, 440 μL DMSO and 440 μl 20% pluronic acid in DMSO, diluted 1:250 in Krebs-Ringer HEPES (KRH) buffer (25 mM HEPES, 5 mM KCl, 0.96 mM NaH2PO4, 1 mM MgSO4, 2 mM CaCl2, 5 mM glucose, 1 mM probenecid, pH 7.4), 50 μl diluted solution per well). Plates are covered with aluminum foil and incubated at 37° C. for 1-2 hours in an environment containing 5% CO2. After the incubation, the dye is emptied from the plates, and the cells are washed once with KRH buffer, and resuspended in KRH buffer.
To measure the ability of a test compound to agonize or antagonize a calcium mobilization response in cells expressing capsaicin receptors to capsaicin or other vanilloid agonist, the EC50 of the agonist capsaicin is first determined. An additional 20 μl of KRH buffer and 1 μl DMSO is added to each well of cells, prepared as described above. 100 μl capsaicin in KRH buffer is automatically transferred by the FLIPR instrument to each well. Capsaicin-induced calcium mobilization is monitored using either FLUOROSKAN ASCENT (Labsystems; Franklin, Mass.) or FLIPR (fluorometric imaging plate reader system; Molecular Devices, Sunnyvale, Calif.) instruments. Data obtained between 30 and 60 seconds after agonist application are used to generate an 8-point concentration response curve, with final capsaicin concentrations of 1 nM to 3 μM. […] software (Synergy Software, Reading, Pa.) is used to fit the data to the equation: y=a*(1/(1+(b/x)^c)) to determine the 50% excitatory concentration (EC50) for the response. In this equation, y is the maximum fluorescence signal, x is the concentration of the agonist or antagonist (in this case, capsaicin), a is the Emax, b corresponds to the EC50 value and c is the Hill coefficient. Determination of Agonist Activity
Test compounds are dissolved in DMSO, diluted in 20 μl KRH buffer so that the final concentration of test compounds in the assay well is between 1 μM and 5 μM, and added to cells prepared as described above. The 96 well plates containing prepared cells and test compounds are incubated in the dark, at room temperature for 0.5 to 6 hours. It is important that the incubation not continue beyond 6 hours. Just prior to determining the fluorescence response, 100 μl capsaicin in KRH buffer at twice the EC50 concentration determined as described above is automatically added by the FLIPR instrument to each well of the 96 well plate for a final sample volume of 200 μl and a final capsaicin concentration equal to the EC50. The final concentration of test compounds in the assay wells is between 1 μM and 5 μM.
Compound `CCOc1cccc(-c2cc(Nc3ccc(C(C)(C)C)cc3)ncn2)c1` [Compound 9, (4-tert-Butyl-phenyl)-[6-(3-eth-oxy-phenyl)-pyrimidin-4-yl]-amine] has an IC50 of no more than 1 µM. For `COc1ccccc1-c1cc(Nc2ccc(C(C)(C)C)cc2)ncn1` [Compound 2, (4-tert-Butyl-phenyl)-[6-(2-meth-oxy-phenyl)-pyrimidin-4-yl]-amine], the IC50 was no more than 1 µM. `CC(C)(C)c1ccc(Nc2cc(-c3cccc(F)c3)ncn2)cc1` [Compound 6, (4-tert-Butyl-phenyl)-[6-(3-fluoro-phenyl)-pyrimidin-4-yl]-amine] gave an IC50 of no more than 1 µM. `CCc1c(Nc2ccc(C(F)(F)F)cc2)ncnc1-c1cccc(OC)c1` [Compound 13, [5-Ethyl-6-(3-methoxy-phenyl)-pyrimidin-4-yl]-(4-tri-fluoromethyl-phenyl)-amine] was tested, and the IC50 was no more than 1 µM. `COc1cccc(-c2nc(COCC(C)C)nc(Nc3ccc(C(C)(C)C)cc3)n2)c1` [Compound 11, (4-tert-Butyl-phenyl)-[4-iso-butoxymethyl-6-(3-meth-oxy-phenyl)-[1,3,5]tri-azin-2-yl]-amine] gave an IC50 of no more than 1 µM. In the case of `COc1cncc(-c2ncnc(Nc3ccc(C(C)(C)C)cc3)c2C)c1` [Compound 16, (4-tert-Butyl-phenyl)-[6-(5-meth-oxy-pyridin-3-yl)-5-meth-yl-pyrimidin-4-yl]-amine], the IC50 is reported as no more than 1 µM. Compound `CCc1c(Nc2ccc(C(C)(C)C)cc2)ncnc1-c1cccc(OC)c1` [Compound 12, (4-tert-Butyl-phenyl)-[5-ethyl-6-(3-meth-oxy-phenyl)-pyrimi-din-4-yl]-amine] has an IC50 of no more than 1 µM. `CC(C)(C)c1ccc(Nc2cc(-c3cccc(OC(F)(F)F)c3)ncn2)cc1` [Compound 8, (4-tert-Butyl-phenyl)-[6-(3-tri-fluoromethoxy-phenyl)-pyri-midin-4-yl]-amine] gave an IC50 of no more than 1 µM. Work on `COc1cccc(-c2ncnc(Nc3ccc(C(C)(C)C)cc3)c2N)c1` [Compound 17, N^4-(4-tert-Butyl-phenyl)-6-(3-meth-oxy-phenyl)-pyrimidine-4,5-di-amine] yielded an IC50 of no more than 1 µM. In the case of `COc1cccc(-c2cc(Nc3ccc(C(C)(C)C)cc3)ncn2)c1` [Compound 3, (4-tert-Butyl-phenyl)-[6-(3-meth-oxy-phenyl)-pyrimidin-4-yl]-amine], the IC50 is reported as no more than 1 µM. `COc1cccc(-c2ncnc(Nc3ccc(C4CCCCC4)cc3)c2N)c1` [Compound 24, N^4-(4-Cyclohexyl-phenyl)-6-(3-meth-oxy-phenyl)-pyrimi-dine-4,5-diamine] gave an IC50 of no more than 1 µM. Work on `COc1cccc(-c2ncnc(Nc3ccc(C(C)(C)C)cc3)c2C)c1` [Compound 10, (4-tert-Butyl-phenyl)-[6-(3-meth-oxy-phenyl)-5-methyl-pyrimidin-4-yl]-amine] yielded an IC50 of no more than 1 µM. Work on `CC(C)(C)c1ccc(Nc2cc(-c3ccccc3C(F)(F)F)ncn2)cc1` [Compound 5, (4-tert-Butyl-phenyl)-[6-(2-tri-fluoromethyl-phenyl)-pyri-midin-4-yl]-amine] yielded an IC50 of no more than 1 µM. For `COc1cccc(-c2nc(C)nc(Nc3ccc(C(F)(F)F)cc3)c2C)c1` [Compound 15, [6-(3-Methoxy-phenyl)-2,5-di-methyl-pyrimidin-4-yl]-(4-tri-fluoromethyl-phenyl)-amine], the IC50 was no more than 1 µM. `Cc1cccc(-c2cc(Nc3ccc(C(C)(C)C)cc3)ncn2)c1` [Compound 7, (4-tert-Butyl-phenyl)-(6-m-tolyl-pyrimidin-4-yl)-amine] showed an IC50 of no more than 1 µM. `COc1cccc(-c2ncnc(Nc3ccc(C(F)(F)F)cc3)c2N)c1` [Compound 23, 6-(3-Methoxy-phenyl)-N^4-(4-tri-fluoromethyl-phenyl)-pyrimi-dine-4,5-diamine] showed an IC50 of no more than 1 µM. Work on `COc1ccc(-c2cc(Nc3ccc(C(C)(C)C)cc3)ncn2)cc1` [Compound 4, (4-tert-Butyl-phenyl)-[6-(4-meth-oxy-phenyl)-pyrimidin-4-yl]-amine] yielded an IC50 of no more than 1 µM. `CC(C)(C)c1ccc(Nc2cc(-c3ccc(Cl)cc3)ncn2)cc1` [Compound 1, (4-tert-Butyl-phenyl)-[6-(4-chloro-phenyl)-pyrimidin-4-yl]-amine] gave an IC50 of no more than 1 µM. With `COc1cccc(-c2nc(N3CCOCC3)nc(Nc3ccc(C(C)(C)C)cc3)c2C)c1` [Compound 19, (4-tert-Butyl-phenyl)-[6-(3-meth-oxy-phenyl)-5-methyl-2-mor-pholin-4-yl-pyrimidin-4-yl]-amine] the IC50 was no more than 1 µM. `COc1cccc(-c2nc(N3CCOCC3)nc(Nc3ccc(C(F)(F)F)cc3)c2C)c1` [Compound 18, [6-(3-Methoxy-phenyl)-5-meth-yl-2-morpholin-4-yl-pyrimidin-4-yl]-(4-tri-fluoromethyl-phenyl)-amine] gave an IC50 of no more than 1 µM. `COc1cccc(-c2nc(C)nc(Nc3ccc(C(C)(C)C)cc3)c2C)c1` [Compound 14, (4-tert-Butyl-phenyl)-[6-(3-meth-oxy-phenyl)-2,5-di-methyl-pyrimidin-4-yl]-amine] gave an IC50 of no more than 1 µM. `COc1ccc(-c2cc(Nc3ccc(C(C)(C)C)cc3)ncn2)cc1OC` [Compound 21, (4-tert-Butyl-phenyl)-[6-(3,4-di-methoxy-phenyl)-pyrimidin-4-yl]-amine] was tested, and the IC50 was no more than 1 µM. `CC(C)(C)c1ccc(Nc2cc(-c3ccccc3)ncn2)cc1` [Compound 20, (4-tert-Butyl-phenyl)-(6-phenyl-pyrimidin-4-yl)-amine] gave an IC50 of no more than 1 µM.
